Assay results published in patent US20230127326A1, “C3-SUBSTITUTED 1H-PYRAZOLO[4,3-d]PYRIMIDINE COMPOUNDS AS TOLL-LIKE RECEPTOR 7 (TLR7) AGONISTS” (BRISTOL-MYERS SQUIBB COMPANY, priority 2020, published 2023).
pEC50: −log10 of the molar value.

What was measured:
human TLR7 = biological target: T1, human TLR7 (Homo sapiens, UniProt Q9NYK1); experiment: Human TLR7 agonist activity reporter assay (HEK-Blue TLR7 cells, SEAP reporter); format: cell-based; conditions: 18 h treatment, average where assay was performed multiple times, read-out: hTLR7 Agonism EC50
T1 construct: host or cells: HEK-Blue TLR7 cells (engineered human embryonic kidney cells)
T1 sequence (Q9NYK1 27-1049): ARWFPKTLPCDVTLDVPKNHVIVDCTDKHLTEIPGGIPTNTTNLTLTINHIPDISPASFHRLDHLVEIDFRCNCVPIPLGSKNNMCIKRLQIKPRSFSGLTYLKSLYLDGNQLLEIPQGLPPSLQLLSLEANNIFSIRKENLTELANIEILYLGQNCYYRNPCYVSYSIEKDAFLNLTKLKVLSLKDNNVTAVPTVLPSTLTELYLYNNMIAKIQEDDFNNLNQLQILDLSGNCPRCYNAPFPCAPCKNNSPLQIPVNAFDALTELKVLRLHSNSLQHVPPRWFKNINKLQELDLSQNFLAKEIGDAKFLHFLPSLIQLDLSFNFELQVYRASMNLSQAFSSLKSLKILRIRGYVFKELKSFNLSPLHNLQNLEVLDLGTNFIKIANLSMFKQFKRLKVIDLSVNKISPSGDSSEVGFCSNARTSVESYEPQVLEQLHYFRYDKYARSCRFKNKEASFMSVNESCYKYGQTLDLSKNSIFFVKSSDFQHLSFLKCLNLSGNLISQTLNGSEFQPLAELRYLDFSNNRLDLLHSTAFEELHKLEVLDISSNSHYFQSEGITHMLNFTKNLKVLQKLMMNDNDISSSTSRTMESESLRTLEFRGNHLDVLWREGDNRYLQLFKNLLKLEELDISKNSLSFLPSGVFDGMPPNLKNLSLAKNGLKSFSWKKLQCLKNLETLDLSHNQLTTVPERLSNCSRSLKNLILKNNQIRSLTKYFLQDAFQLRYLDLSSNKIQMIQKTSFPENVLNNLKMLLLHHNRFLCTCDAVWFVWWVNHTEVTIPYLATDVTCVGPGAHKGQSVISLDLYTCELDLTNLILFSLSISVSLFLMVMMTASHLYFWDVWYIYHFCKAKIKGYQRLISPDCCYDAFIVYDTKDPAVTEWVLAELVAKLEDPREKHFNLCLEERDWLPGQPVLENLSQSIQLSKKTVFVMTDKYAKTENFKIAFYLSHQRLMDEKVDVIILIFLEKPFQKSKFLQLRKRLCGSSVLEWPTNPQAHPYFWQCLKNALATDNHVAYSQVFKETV
Description: This procedure describes a method for assaying human TLR7 (hTLR7) agonist activity of the compounds disclosed in this specification.
HEK-Blue™ TLR7 cells were added to each well of a 384-well tissue-culture plate (15,000 cells per well) and incubated 16-18 h at 37° C., 5% CO2. Compounds (100 nl) were dispensed into wells containing the HEK-Blue™ TLR cells and the treated cells were incubated at 37° C., 5% CO2. After 18 h treatment ten microliters of freshly-prepared Quanti-Blue™ reagent (Invivogen) was added to each well, incubated for 30 min (37° C., 5% CO2) and SEAP levels measured using an Envision plate reader (OD=620 nm). The half maximal effective concentration values (EC50; compound concentration which induced a response halfway between the assay baseline and maximum) were calculated.

CD69 = experiment: Induction of CD69 in human whole blood; format: cell-based; conditions: 17 hrs at 37° C., y-axis 100% set to 1 uM of resiquimod, average where assay was performed multiple times, read-out: hWB CD69 EC50
Description: The induction of Type I interferon (IFN) MX-1 genes and the B-cell activation marker CD69 are downstream events that occur upon activation of the TLR7 pathway. The following is a human whole blood assay that measures their induction in response to a TLR7 agonist.
Heparinized human whole blood was harvested from human subjects and treated with test TLR7 agonist compounds at 1 mM. The blood was diluted with RPMI 1640 media and Echo was used to predot 10 nL per well giving a final concentration of 1 uM (10 nL in 10 uL of blood). After mixing on a shaker for 30 sec, the plates were covered and placed in a 37° C. chamber for o/n=17 hrs. Fixing/lysis buffer was prepared (5×->1× in H2O, warm at 37° C.; Cat #BD 558049) and kept the perm buffer (on ice) for later use.
For surface markers staining (CD69): prepared surface Abs: 0.045 ul hCD14-FITC (ThermoFisher Cat #MHCD1401)+0.6 ul hCD19-ef450 (ThermoFisher Cat #48-0198-42)+1.5 ul hCD69-PE (cat #BD555531)+0.855 ul FACS buffer. Added 3 ul/well, spin 1000 rpm for 1 min and mixed on shaker for 30 sec, put on ice for 30 mins. Stop stimulation after 30 minutes with 70 uL of prewarmed 1× fix/lysis buffer and use Feliex mate to resuspend (15 times, change tips for each plate) and incubate at 37 C for 10 minutes.
Centrifuge at 2000 rpm for 5 minutes aspirate with HCS plate washer, mix on shaker for 30 sec and then wash with 70 uL in dPBS and pelleted 2×s (2000 rpm for 5 min) and 50 ul wash in FACS buffer pelleted 1×s (2000 rpm for 5 min). Mix on shaker for 30 sec. For Intracellular markers staining (MX-1): Add 50 ul of BD Perm buffer III and mix on shaker for 30 sec. Incubate on ice for 30 minutes (in the dark). Wash with 50 uL of FACS buffer 2× (spin @2300 rpm×5 min after perm) followed by mixing on shaker for 30 sec. Resuspended in 20 ul of FACS buffer containing MX1 antibody ( )(4812)-Alexa 647: Novus Biologicals #NBP2-43704AF647) 20 ul FACS bf+0.8 ul hIgG+0.04 ul MX-1. Spin 1000 rpm for 1 min, mix on shaker for 30 se and the samples were incubated at RT in the dark for 45 minutes followed by washing 2×FACS buffer (spin @2300 rpm×5 min after perm). Resuspend 20 ul (35 uL total per well) of FACS buffer and cover with foil and place in 4° C. to read the following day. Plates were read on iQuePlus. The results were loaded into toolset and […] curves are generated in curve master. The y-axis 100% is set to 1 uM of resiquimod.

| pEC50 (human TLR7) | pEC50 (CD69) | SMILES |
| --- | --- | --- |
| 5.81 | 6.19 | CCCCNc1nc(N)nc2c(C3=CCOC3)nn(Cc3ccc(CNC4CCOCC4)cc3OC)c12 [Compound 121, N7-butyl-3-(2,5-dihydro-furan-3-yl)-1-[(2-methoxy-4-{[(oxan-4-yl)amino]methyl}-phenyl)methyl]-1H-pyrazolo[4,3-d]pyrimidine-5,7-diamine] |
| 7.64 | 7.35 | CCCCNc1nc(N)nc2c(F)nn(Cc3ccc(CN4CCN(CCO)CC4)cc3OC)c12 [Compound 110, 2-{4-[(4-{[5-amino-7-(butylamino)-3-fluoro-1H-pyrazolo[4,3-d]pyrimidin-1-yl]methyl}-3-methoxyphenyl)methyl]-piperazin-1-yl}ethan-1-ol] |
| 7.39 | 8.03 | CCC[C@@H](CCO)Nc1nc(N)nc2c(F)nn(Cc3ccc(CN[C@@H]4COC[C@H]4O)cc3OC)c12 [Compound 132, (3S,4R)-4-[({4-[(5-amino-3-fluoro-7-{[(3S)-1-hydroxy-hexan-3-yl]amino}-1H-pyrazolo[4,3-d]pyrimidin-1-yl)-methyl]-3-methoxyphenyl}-methyl)amino]oxolan-3-ol] |
| 8.23 | 8.46 | CCC[C@@H](CCO)Nc1nc(N)nc2c(C)nn(Cc3ccc(CN4CCN(C)CC4)cc3OC)c12 [Compound 129, (3S)-3-{[5-amino-1-({2-methoxy-4-[(4-methyl-piperazin-1-yl)methyl]-phenyl}methyl)-3-methyl-1H-pyrazolo[4,3-d]pyrimidin-7-yl]amino}hexan-1-ol] |
| 5.98 | 6.38 | CCCCNc1nc(N)nc2c(C(C)C)nn(Cc3ccc(CNC4CCOCC4)cc3OC)c12 [Compound 123, N7-butyl-1-[(2-methoxy-4-{[(oxan-4-yl)amino]methyl}-phenyl)methyl]-3-(propan-2-yl)-1H-pyrazolo[4,3-d]pyrimidine-5,7-diamine] |
| 6.23 | 6.60 | CCCCNc1nc(N)nc2c(CO)nn(Cc3ccc(CNC4CCOCC4)cc3OC)c12 [Compound 118, [5-amino-7-(butylamino)-1-[(2-methoxy-4-{[(oxan-4-yl)amino]methyl}phenyl)-methyl]-1H-pyrazolo[4,3-d]pyrimidin-3-yl]methanol] |
| 7.40 | 8.09 | CCCCNc1nc(N)nc2c(OC)nn(Cc3ccc(CNC4CCOCC4)cc3OC)c12 [Compound 115, N7-butyl-3-methoxy-1-[(2-methoxy-4-{[(oxan-4-yl)amino]methyl}phenyl)-methyl]-1H-pyrazolo[4,3-d]pyrimidine-5,7-diamine] |
| 5.70 | 6.44 | CCCCNc1nc(N)nc2c(Br)nn(Cc3ccc(CNC4CCOCC4)cc3OC)c12 [Compound 101, 3-bromo-N7-butyl-1-[(2-methoxy-4-{[(oxan-4-yl)amino]methyl}phenyl)-methyl]-1H-pyrazolo[4,3-d]pyrimidine-5,7-diamine] |
| 8.14 | 8.92 | CCC[C@@H](CCO)Nc1nc(N)nc2c(C)nn(Cc3ccc(CN4CCN(CCO)CC4)cc3OC)c12 [Compound 128, (3S)-3-({5-amino-1-[(4-{[4-(2-hydroxyethyl)piperazin-1-yl]methyl}-2-methoxy-phenyl)methyl]-3-methyl-1H-pyrazolo[4,3-d]pyrimidin-7-yl}amino)hexan-1-ol] |
| 7.20 | 7.69 | CCCCNc1nc(N)nc2c(C)nn(Cc3ccc(CN4CCN(CCO)CC4)cc3OC)c12 [Compound 106, 2-{4-[(4-{[5-amino-7-(butylamino)-3-methyl-1H-pyrazolo[4,3-d]pyrimidin-1-yl]methyl}-3-methoxy-phenyl)methyl]piperazin-1-yl}ethan-1-ol] |
| 6.63 | 6.63 | CCC[C@@H](CO)Nc1nc(N)nc2c(C)nn(Cc3ccc(CN4CCN(CCO)CC4)cc3OC)c12 [Compound 125, (2S)-2-({5-amino-1-[(4-{[4-(2-hydroxyethyl)piperazin-1-yl]methyl}-2-methoxy-phenyl)methyl]-3-methyl-1H-pyrazolo[4,3-d]pyrimidin-7-yl}amino)pentan-1-ol] |
| 7.14 | 7.06 | CCCCNc1nc(N)nc2c(F)nn(Cc3ccc(CNC4CCOCC4)cc3OC)c12 [Compound 108, N7-butyl-3-fluoro-1-[(2-methoxy-4-{[(oxan-4-yl)amino]methyl}phenyl)-methyl]-1H-pyrazolo[4,3-d]pyrimidine-5,7-diamine] |
| 7.21 | 8.03 | CCCCNc1nc(N)nc2c(C)nn(Cc3ccc(CN4CCN(C)CC4)cc3OC)c12 [Compound 105, N7-butyl-1-({2-methoxy-4-[(4-methylpiperazin-1-yl)methyl]phenyl}methyl)-3-methyl-1H-pyrazolo[4,3-d]pyrimidine-5,7-diamine] |
| 7.66 | 8.57 | CCC[C@@H](CCO)Nc1nc(N)nc2c(C)nn(Cc3ccc(CNC4CCOCC4)cc3OC)c12 [Compound 127, (3S)-3-({5-amino-1-[(2-methoxy-4-{[(oxan-4-yl)amino]methyl}phenyl)-methyl]-3-methyl-1H-pyrazolo[4,3-d]pyrimidin-7-yl}amino)hexan-1-ol] |
| 5.85 | 6.15 | CCCCNc1nc(N)nc2c(-c3cc[nH]n3)nn(Cc3ccc(CNC4CCOCC4)cc3OC)c12 [Compound 116, N7-butyl-1-[(2-methoxy-4-{[(oxan-4-yl)amino]methyl}-phenyl)methyl]-3-(1H-pyrazol-3-yl)-1H-pyrazolo[4,3-d]pyrimidine-5,7-diamine] |
| 6.10 | 6.47 | CCCCNc1nc(N)nc2c(C3CCOC3)nn(Cc3ccc(CNC4CCOCC4)cc3OC)c12 (stereo not shown) [Compound 124, N7-butyl-1-[(2-methoxy-4-{[(oxan-4-yl)amino]methyl}-phenyl)methyl]-3-(oxolan-3-yl)-1H-pyrazolo[4,3-d]pyrimidine-5,7-diamine] |
| 7.20 | 7.04 | CCC[C@@H](CCO)Nc1nc(N)nc2c(C)nn(Cc3ccc(CO)cc3OC)c12 [Compound 126, (3S)-3-[(5-amino-1-{[4-(hydroxymethyl)-2-methoxyphenyl]methyl}-3-methyl-1H-pyrazolo[4,3-d]pyrimidin-7-yl)amino]hexan-1-ol] |
